Data reported in article PMC9150099, “Preventing Influenza A Virus Infection by Mixed Inhibition of Neuraminidase and Hemagglutinin by Divalent Inhibitors” (Journal of Medicinal Chemistry, 2022).

Assays:
[1] = tested on: recombinant soluble tetrameric N1 and N9 proteins (neuraminidase); assay type: biochemical; conditions: for IC50: read-out: inhibition of recombinant NA tetramers in enzymatic MUNANA assay (IC50 μM)
[2] = tested on: HA on virus particle (Neth09H1N1); assay type: binding, Influenza virus A/Netherlands/602/2009 (Neth09H1N1)
[3] = tested on: Neth09H1N1 virus infection of MDCK cells; assay type: cell-based, Influenza virus A/Netherlands/602/2009 (Neth09H1N1)
[4] = target: NA of the whole Neth09H1N1 virus (Influenza A virus, UniProt C3PSV3); assay type: biochemical, Influenza virus A/Netherlands/602/2009 (Neth09H1N1); conditions: for IC50: read-out: inhibition of NA of the whole virus in enzymatic MUNANA assay (IC50 μM)
NA of Neth09H1N1 virus = assay type: biochemical, Influenza virus A/Netherlands/602/2009 (Neth09H1N1)
[5] = target: Recombinant soluble N9 protein (N9 Spain) neuraminidase tetramer (Influenza A virus, UniProt K9MBB0); assay type: biochemical, Influenza A virus A/Anascrecca/Spain/1460/2008(H7N9)
[6] = tested on: HA on virus particle (Neth09H1N1); conditions: cited from earlier work

CC[C@@H](CCCCc1cn([C@H]2[C@H](O)[C@@H](O)[C@H](n3cc(-c4ccc(-c5cn([C@H]6[C@H](O)[C@@H](O)[C@H](n7cc(-c8ccc(-c9cn([C@@H]%10O[C@H](CO)[C@@H](n%11cc(CCCC[C@H](CC)O[C@@H]%12OC(C(=O)O)=C[C@H](O)[C@H]%12NC(C)=O)nn%11)[C@H](O)[C@H]%10O)nn9)cc8)nn7)O[C@@H]6CO)nn5)cc4)nn3)O[C@@H]2CO)nn1)O[C@@H]1OC(C(=O)O)=C[C@H](O)[C@H]1NC(C)=O [Compound 21]
potency difference to OC (OC more potent) [1]: ca. 100 fold | IC50 [1]: 1.3 ± 0.4 µM | inhibition of virus binding to the BLI sensor, compound alone [2]: sufficient to prevent apparent viral binding to the sensor | inhibition of virus-receptor binding (HA inhibition) by BLI [2]: largest effect | inhibition of virus-receptor binding by BLI in the presence of OC (Figure 5a) [2]: inhibited virus-receptor binding | CPE assay [3]: 0.45 ± 0.4 mM | CPE reduction assay on MDCK cells, lowest concentration that inhibits CPE formation [3]: 0.45 ± 0.4 µM | amount needed to prevent cell killing (CPE) relative to IC50 in MUNANA assay with the whole virus [3]: 4 fold | better CPE inhibitor than OC [3]: ca. 2 fold | multivalency enhancement in comparison with monovalent 12 [4]: 20–30 fold | potency difference to OC (OC more potent) [4]: ca. 25 fold | IC50 [4]: 0.11 ± 0.004 µM | NA inhibition judged from virus re-binding to regenerated sensor (NA of Neth09H1N1 virus): able to inhibit the NA

CCC(CC)O[C@@H]1OC(C(=O)O)=C[C@H](O)[C@H]1NC(C)=O [OCM, reference compound]
inhibition of virus-receptor binding (HA inhibition) by BLI [2]: can be observed

C#CCCCC[C@H](CC)O[C@@H]1OC(C(=O)O)=C[C@H](O)[C@H]1NC(C)=O [Compound 12]
potency difference to OC (OC more potent) [1]: ca. 600 fold | IC50 [1]: 6.4 ± 1 µM | inhibition of virus-receptor binding (HA inhibition) by BLI [2]: significant HA binding | CPE assay [3]: >5 mM | CPE reduction assay on MDCK cells, lowest concentration that inhibits CPE formation [3]: >5 µM | potency difference to OC (OC more potent) [4]: ca. 600 fold | IC50 [4]: 2.33 ± 0.005 µM | reduction of potency relative to parent OCM [5]: 6 fold

CC[C@@H](CCCCc1cn([C@H]2[C@H](O)[C@@H](O)[C@H](n3cc(-c4ccc(-c5cn([C@@H]6O[C@H](CO)[C@@H](n7cc(-c8cc(O)c(-c9cn([C@@H]%10O[C@H](CO)[C@@H](n%11cc(-c%12ccc(-c%13cn([C@@H]%14O[C@H](CO)[C@@H](n%15cc(CCCC[C@H](CC)O[C@@H]%16OC(C(=O)O)=C[C@H](O)[C@H]%16NC(C)=O)nn%15)[C@H](O)[C@H]%14O)nn%13)cc%12)nn%11)[C@H](O)[C@H]%10O)nn9)cc8O)nn7)[C@H](O)[C@H]6O)nn5)cc4)nn3)O[C@@H]2CO)nn1)O[C@@H]1OC(C(=O)O)=C[C@H](N)[C@H]1NC(C)=O [Compound 24]
IC50 [1]: 10.6 ± 1.7 µM | inhibition of virus-receptor binding (HA inhibition) by BLI [2]: did not have increased inhibitory activity compared to monovalent 12 | CPE assay [3]: 0.84 ± 0.4 mM | CPE reduction assay on MDCK cells, lowest concentration that inhibits CPE formation [3]: 0.84 ± 0.4 µM | amount needed to prevent cell killing (CPE) relative to IC50 in MUNANA assay with the whole virus [3]: 0.2 fold | IC50 [4]: 4.7 ± 0.9 µM

C#CCCCC[C@H](CC)O[C@H]1OC(C(=O)O)=C[C@H](O)[C@H]1NC(C)=O [Compound 14]
IC50, NA (N9 Spain) MUNANA enzyme inhibition [5]: no inhibition

C#CCCCC[C@@H](CC)O[C@H]1OC(C(=O)O)=C[C@H](O)[C@H]1NC(C)=O [Compound 15]
IC50, NA (N9 Spain) MUNANA enzyme inhibition [5]: no inhibition

CCC(CC)O[C@@H]1C=C(C(=O)O)C[C@H](N)[C@H]1NC(C)=O [OC, oseltamivir carboxylate, reference compound]
interference with HA-receptor binding [6]: does not interfere with HA-receptor binding | CPE assay [3]: 1.0 ± 0.4 mM | CPE reduction assay on MDCK cells, lowest concentration that inhibits CPE formation [3]: 1.0 ± 0.4 µM | IC50 [4]: 0.004 ± 0.001 µM

CC[C@@H](CCCCc1cn([C@H]2[C@H](OC(C)=O)[C@@H](OC(C)=O)[C@H](n3cc(CCCC[C@H](CC)O[C@@H]4OC(C(=O)O)=C[C@H](O)[C@H]4NC(C)=O)nn3)O[C@@H]2COC(C)=O)nn1)O[C@@H]1OC(C(=O)O)=C[C@H](O)[C@H]1NC(C)=O [Compound 17a]
IC50 [1]: 24.4 ± 17.5 µM | CPE assay [3]: >5 mM | CPE reduction assay on MDCK cells, lowest concentration that inhibits CPE formation [3]: >5 µM | IC50 [4]: 9.4 ± 0.4 µM
